The results in this text go back to patent US20260217765A1, “NOVEL ANTIMICROBIAL PEPTIDE DESIGNED FROM DUCK-DERIVED ANTIMICROBIAL PEPTIDE ANDUSE THEREOF” (INDUSTRY-ACADEMIC COOPERATION FOUNDATION, CHOSUN UNIVERSITY, priority 2023, published 2026).

One data set relates to plasmid DNA (pRSETB). Nature of the data set: Binding to bacterial DNA, agarose gel electrophoresis. Particulars: 260 ng plasmid DNA, DNA/peptide ratios 1:1 to 1:4, 37° C. 10 minutes. How it is done: Accordingly, to further elucidate the mechanism by which these novel peptides exert antimicrobial activity, it was examined whether the novel peptides dCATH-A6 and dCATH-A7 bind to intracellular bacterial DNA using electrophoresis.
Specifically, 260 ng of plasmid DNA (pRSETB) was reacted with each peptide at various ratios (lanes 1 through […] represent DNA only, 1:1, 1:2, 1:3, and 1:4 DNA/peptide ratios, respectively) at 37° C. for 10 minutes. The samples were then subjected to electrophoresis on a 1% agarose gel, stained with ethidium bromide (EtBr), and visualized under UV light.

The next data set in a line: in vitro. Format: cell-based. The conditions noted are these: human, HaCaT keratinocyte cells, Cell Viability. On the procedure: To evaluate the cytotoxicity of the peptides prepared in <Example 1>, toxicity was measured using a human keratinocyte cell line (HaCaT cell line, Dr. N. E. Fusenig, Heidelberg, Germany).
Specifically, HaCaT cells cultured in DMEM medium containing 10% fetal bovine serum (FBS) were seeded at a density of 2×10^5 cells/well into a microtiter plate and incubated for 24 hours. Then, peptides dCATH, dCATH-A1, dCATH-A2, dCATH-A3, dCATH-A4, dCATH-A5, dCATH-A6, and dCATH-A7 were added to each well at concentrations of 3.13, 6.25, 12.5, 25.0, 50.0, and 100.0 μM/well, followed by incubation for 24 hours in a 5% CO2 incubator. After 24 hours, 100 μL of a reaction solution containing 0.5 mg/mL MTT (Thiazolyl Blue Tetrazolium Bromide) dissolved in phosphate-buffered saline (PBS) was added to each well and reacted for 4 hours. After removing the supernatant, 200 μL of DMSO (dimethyl sulfoxide) was added to dissolve the formed MTT crystals, and absorbance at 570 nm was measured to determine cell viability.

The test system of data set [1] is Acinetobacter baumannii_isolate 10. Type of data set: cell-based, Acinetobacter baumannii. The conditions noted are these: isolate 10, 24 h. On the procedure: (§1) Specifically, among the bacterial strains listed in Table 2, those known to form biofilms well (Acinetobacter baumannii KCTC 2508, Acinetobacter baumannii isolate 10, and isolate 14) were cultured in the appropriate media to the mid-log phase and diluted to a cell concentration of 5×10^4 cells/100 µL, followed by inoculation into microplates (SPL). Subsequently, the peptides prepared in <Example 1> were serially 10-fold diluted with 10 mM sodium phosphate buffer (pH 7.2), and 10 μL of each dilution was added to each well. The plates were then incubated at 37° C. for 24 hours. After completely removing the supernatant, the plates were fixed with 100% methanol for 15 minutes, stained with crystal violet staining solution for 1 hour, washed three times, and then the stain was solubilized with 95% ethanol. Absorbance was measured at 595 nm using a microplate reader to determine the MBIC values for each bacterial strain.

Data set [2] concerns Acinetobacter baumannii_isolate 14. Format: cell-based, Acinetobacter baumannii. The conditions noted are these: isolate 14, 24 h. How it is done: as §1
Data set [3] has as its system Acinetobacter baumannii membrane. Nature of the data set: Flow cytometry, propidium iodide, action on bacterial membrane. Format: cell-based. Particulars: peptide at twice the MIC, 37° C. 10 minutes. How it is done: To determine whether the peptides prepared in <Example 1> act on bacterial membranes, the parent peptide and the novel peptides dCATH-A1, dCATH-A2, dCATH-A3, dCATH-A4, dCATH-A5, dCATH-A6, and dCATH-A7 were analyzed using flow cytometry.
Specifically, Acinetobacter baumannii was treated with each peptide at twice the minimum inhibitory concentration (MIC), followed by incubation at 37° C. for 10 minutes. The supernatant was then removed by centrifugation at 10,000 rpm, and the bacterial cells were stained with propidium iodide (PI) at a concentration of 10 μg/mL at 4° C. for 30 minutes. Unbound PI was removed by centrifugation, and 1 mL of phosphate-buffered saline (PBS) was added to disperse any cell clumps. The effect of the peptides on the bacterial membrane was then assessed using a Beckman flow cytometer.
(In flow cytometry, cells or beads pass a laser one at a time.)

Data set [4] deals with Escherichia coli ATCC 25922. Type of data set: cell-based. An excerpt:
(§2) To compare the antimicrobial activity of the peptides prepared in <Example 1>, the minimum inhibitory concentration (MIC), […] measured. Here, the minimal inhibitory concentration (MIC) refers to the lowest concentration of a substance that prevents visible bacterial growth.
(§3) Specifically, the bacterial strains listed in Table 2 below were obtained and cultured in media suitable for each strain until the mid-log phase. The cultures were then diluted to a concentration of 2×10^4 cells/100 μL and prepared in microtiter plates (Nunc, USA). Subsequently, serial 2-fold dilutions of the peptides prepared in Example 1 were prepared, and 10 μL of each dilution was added to the wells, and the plates were incubated at 37° C. for 18 hours. Absorbance at 600 nm was measured using a microtiter plate reader (Merck ELISA reader, Germany) to determine the MIC values for each bacterial strain. The parent peptide dCATH was used as a control.

Data set [5] concerns Pseudomonas aeruginosa ATCC 27853. Format: cell-based.
Excerpt: as §2, §3

The test system of data set [6] is Staphylococcus aureus ATCC 25923. Format: cell-based. The conditions noted are these: for MIC: ATCC 25923; for antimicrobial activity compared to the control peptide dCATH: against Staphylococcus aureus strains.
Excerpt: as §2, §3

Data set [7] concerns Acinetobacter baumannii KCTC 1017. Type of data set: cell-based. Particulars: for MIC: KCTC 1017; for antimicrobial activity compared to the control peptide dCATH: against Acinetobacter baumannii.
Excerpt: as §2, §3

The test system of data set [8] is Bacillus cereus KCTC 2508. Format: cell-based.
Excerpt: as §2, §3

Data set [9] relates to Listeria monocytogenes KCTC 3710. Type of data set: cell-based.
Excerpt: as §2, §3

SMILES strings stand for the structures. Converted amounts (≈) assume the structure as drawn. Peptide text beside a SMILES is read from it.

Turning to `CC[C@H](C)[C@H](NC(=O)[C@H](C)NC(=O)[C@H](CC(C)C)NC(=O)[C@@H]1CCCN1C(=O)[C@@H](NC(=O)[C@H](CC(C)C)NC(=O)[C@H](CCC(N)=O)NC(=O)[C@H](Cc1c[nH]c2ccccc12)NC(=O)[C@H](Cc1ccccc1)NC(=O)[C@H](CCCNC(=N)N)NC(=O)[C@@H](N)CCCCN)C(C)C)C(=O)N[C@@H](CCCCN)C(=O)N[C@H](C(=O)N[C@@H](Cc1ccc(O)cc1)C(=O)N[C@@H](CCCNC(=N)N)C(=O)N[C@@H](C)C(=O)N[C@@H](Cc1c[nH]c2ccccc12)C(=O)N[C@@H](CCCCN)C(=O)N[C@@H](CCCNC(=N)N)C(=O)N[C@@H](CCCNC(=N)N)C(N)=O)[C@@H](C)CC` [dCATH, reference compound] (H-KRFWQLVPLAIKIYRAWKRR-NH2; N-terminus assumed), the “binding to DNA (electrophoresis)” value with plasmid DNA (pRSETB) is recorded as “no detectable binding to DNA”. The viability (usually the share of living cells, or the viability signal relative to a control) at 24 h, 3.13 µM in “in vitro” worked out at 100%. In “in vitro”, this compound registered a viability at 24 h, 6.25 µM of 100%. For the same compound, the viability at 24 h, 12.5 µM in “in vitro” is 75.3%. The viability at 24 h, 25 µM in the data set “in vitro” turned out to be 11.6%. For the same compound, in the data set “in vitro”, the viability at 24 h, 50 µM worked out at 2.51%. Besides, the MBIC in [1] and in data set [2] was 4 µM in each case. In addition, in [3], the “membrane damage in Acinetobacter baumannii (shift in PI fluorescence signal)” value is on record as “induced membrane damage”. Further, the MIC (in general, the lowest concentration found to suppress growth) was 2 µM (≈ 5.26 µg/mL) in [4]; 2 µM (≈ 5.26 µg/mL) in data set [5]; 2 µM (≈ 5.26 µg/mL) in [6]; 2 µM (≈ 5.26 µg/mL) in data set [7]; 1 µM (≈ 2.63 µg/mL) in [8]; 2 µM (≈ 5.26 µg/mL) in data set [9].

In the case of `CC[C@H](C)[C@H](NC(=O)[C@H](C)NC(=O)[C@H](CCCCN)NC(=O)[C@H](CCCCN)NC(=O)[C@@H](NC(=O)[C@H](CC(C)C)NC(=O)[C@H](CCC(N)=O)NC(=O)[C@H](C)NC(=O)[C@H](C)NC(=O)[C@H](CCCNC(=N)N)NC(=O)[C@@H](N)CCCCN)C(C)C)C(=O)N[C@@H](CCCCN)C(=O)N[C@@H](CCCCN)C(=O)N[C@@H](Cc1ccc(O)cc1)C(=O)N[C@@H](CCCNC(=N)N)C(=O)N[C@@H](C)C(=O)N[C@@H](Cc1c[nH]c2ccccc12)C(=O)N[C@@H](CCCCN)C(N)=O` [dCATH-A7, KRAAQLVKKAIKKYRAWK] (H-KRAAQLVKKAIKKYRAWK-NH2; N-terminus assumed), in the data set on plasmid DNA (pRSETB), the “binding to DNA (electrophoresis)” value was “did bind to DNA”. Further, in “in vitro”, the viability at 24 h, 3.13 µM turned out to be 98%; the viability at 24 h, 6.25 µM was found to be 99.2%; the viability at 24 h, 12.5 µM came out at 100%; the viability at 24 h, 25 µM is 100%. Besides, in the data set “in vitro”, the viability at 24 h, 50 µM amounted to 100% and the viability at 24 h, 100 µM was found to be 98.4%. The compound also had an MBIC in data set [1] of 2 µM. Besides, the MBIC in data set [2] is 1 µM. In data set [3], the “membrane damage in Acinetobacter baumannii (shift in PI fluorescence signal)” value was “no damage to the bacterial membrane”. In data set [4], this compound returned an MIC of 4 µM (≈ 8.74 µg/mL). For the same compound, in data set [5], the MIC turned out to be 8 µM (≈ 17.5 µg/mL). Besides, in data set [6], the MIC stood at 0.5 µM (≈ 1.09 µg/mL) and the “antimicrobial activity compared to the control peptide dCATH” value was “notably superior activity”. For the same compound, in data set [7], the MIC is 1 µM (≈ 2.19 µg/mL) and the “antimicrobial activity compared to the control peptide dCATH” value was “significantly superior antimicrobial activity”. The same compound showed an MIC in [8] of 1 µM (≈ 2.19 µg/mL). Besides, in data set [9], the MIC is 4 µM (≈ 8.74 µg/mL).

Take `CC[C@H](C)[C@H](NC(=O)[C@H](C)NC(=O)[C@H](CCCCN)NC(=O)[C@H](CCCCN)NC(=O)[C@@H](NC(=O)[C@H](CC(C)C)NC(=O)[C@H](CCC(N)=O)NC(=O)[C@H](C)NC(=O)[C@H](C)NC(=O)[C@H](CCCNC(=N)N)NC(=O)[C@@H](N)CCCCN)C(C)C)C(=O)N[C@@H](CCCCN)C(=O)N[C@@H](CCCCN)C(=O)N[C@@H](Cc1ccc(O)cc1)C(=O)N[C@@H](CCCNC(=N)N)C(=O)N[C@@H](C)C(=O)N[C@@H](Cc1c[nH]c2ccccc12)C(=O)N[C@@H](CCCCN)C(=O)N[C@@H](CCCNC(=N)N)C(=O)N[C@@H](CCCNC(=N)N)C(N)=O` [dCATH-A6] (H-KRAAQLVKKAIKKYRAWKRR-NH2; N-terminus assumed): in the data set on plasmid DNA (pRSETB), the “binding to DNA (electrophoresis)” value was “did bind to DNA”. Further, in “in vitro”, the viability at 24 h, 3.13 µM stood at 98.9%; the viability at 24 h, 6.25 µM was 100%; the viability at 24 h, 12.5 µM worked out at 94.7%; the viability at 24 h, 25 µM was found to be 98%. For the same compound, in “in vitro”, the viability at 24 h, 50 µM was determined as 97.8% and the viability at 24 h, 100 µM was 92%. The MBIC in data set [1] came to 2 µM. Moreover, the MBIC in data set [2] is 2 µM. In data set [3], the “membrane damage in Acinetobacter baumannii (shift in PI fluorescence signal)” value is reported as “no damage to the bacterial membrane”. Besides, the MIC in [4] is 2 µM (≈ 5 µg/mL). In data set [5], this compound gave an MIC of 2 µM (≈ 5 µg/mL). In addition, in data set [6], the minimum inhibitory concentration (MIC) was found to be 0.5 µM (≈ 1.25 µg/mL) and the “antimicrobial activity compared to the control peptide dCATH” value is reported as “notably superior activity”. In addition, in data set [7], the MIC was 1 µM (≈ 2.5 µg/mL) and the “antimicrobial activity compared to the control peptide dCATH” value is “significantly superior antimicrobial activity”. Besides, the MIC in data set [8] was 2 µM (≈ 5 µg/mL). The MIC in data set [9] came to 2 µM (≈ 5 µg/mL).
